The source of these data is patent publication US20230242669A1, “ANTIBODY THAT BINDS ERBB-2 AND ERBB-3” (Merus N.V., priority 2014, published 2023).

The test system of one series is JIMT-1 cells. Description: JIMT-1 proliferation in soft agar. Format: cell-based, human. The conditions noted are these: 10-0.003 µg/ml, 8 days. As for the experimental part: To this aim 96 well suspension cell culture plates were prepared. 100 µL of the soft agar bottom layer (0.6% final concentration in complete medium) was poured and left to solidify. 50 µL of the soft agar top layer (0.4% final concentration) containing 10.000 JIMT-1 cells/well were then added on top, solidified and such 96 well plates incubated overnight at 37° C., 10% CO2. […] Subsequently, the assay was incubated in cell culture incubators for 8 days. Finally, the cells were incubated with Alamar Blue for 3-5 h at 37° C. and fluorescence intensity was determined (excitation: 560 nm; emission: 590 nm). […] (FIG. 8).

In series [1] the test system is HRG mediated phosphorylation in N87 and SKBR-3 cells. Description: Western blot of HRG stimulated cells. As to conditions: 5 nM antibody, 100 ng/ml HRG, 1-24 hours. Format: cell-based, human. As for the experimental part: Cells of an exponentially grown culture were harvested and seeded in 10 cm dishes (20×10^6 cells for N87 and 7×10^6 cells for SKBR-3) in starvation medium (N87 cells: RPMI-1640, 0.05% BSA, 10 µg/ml Holo-transferrin; SKBR-3 cells: DMEM/F-12, 2 mM L-glutamine, 0.05% BSA, 10 µg/ml Holo-transferrin). The next day, antibodies were added to a final concentration of 5 nM and cells were incubated for one hour. HRG was then added to a final concentration of 100 ng/ml. After 1, 3, 6 or 24 hours, dishes were placed on ice, cells were washed twice with cold PBS, transferred to Eppendorf tubes and lysed with 250 µl of RIPA lysis buffer (20 mM Tris-HCl pH 7.5, 150 mM NaCl, 1 mM Na2EDTA, 1 mM EGTA, 1% NP-40, 1% sodium deoxycholate, 0.1% SDS, 2.5 mM sodium pyrophosphate, 1 mM beta-glycerophosphate, 1 mM Na3VO4, 1 µg/ml leupeptin). Lysis was allowed to proceed for 30 minutes on ice. Cell lysates were centrifuged and supernatants were collected in new Eppendorf tubes. Protein concentration was determined using the BCA method (Pierce). […] Membranes were blocked for one hour with TBS-T containing 5 % BSA and stained with the indicated antibodies according to the manufacturer’s instructions (Cell Signaling Technology). Membranes were then incubated with a HRP-conjugated secondary antibody, incubated with ECL substrate and subjected to autoradiography using X-ray films (Amersham). […]
On the technique in general: In western blotting, separated proteins are transferred to a membrane and probed.

Series [2] relates to HER2:HER3 signaling in JIMT-1 tumors. The series can be described thus: VeraTag analysis of JIMT-1 tumors. Format: in vivo, mice. The procedure:
Next, samples were paraffin-embedded. Sections of 7 um in thickness were sliced with a microtome (LEICA) and placed on positively charged glass slides (VWR) with serial number labeled. Slides were air-dried for 30 min and then baked in a heated oven set at 60° C. Next samples were processed for different VeraTag analysis. Total HER2 analysis (HT2) according to U.S. Pat. Appl. No. 12/340,436, total HER3 analysis (H3T) according to U.S. Pat. No. 8,349,574; U.S. Pat. Appl. No. 2013/0071859 and finally HER2-HER3 heterodimer (H23D), HER3pY1289 (H3pY1289) and HER3-PI3 kinase (H3PI3K) according to Int′l Patent Appl. No. PCT/US2014/033208.

With “PB4188: bispecific HER2xHER3 IgG: HER2 arm MF3958, HER3 arm MF3178”, in the series on JIMT-1 cells, the “Inhibition of JIMT-1 proliferation” value is “dose dependent inhibition of JIMT-1 proliferation”. In addition, the HER3 phosphorylation result in series [1] is recorded as “prolonged inhibition of HER3 phosphorylation”. Also, the “Total HER2, HER3 or phosphorylated HER3 in tumors versus controls” value in series [2] (25 mg/kg) is listed as “no difference”. Further, the “HER2:HER3 dimers in tumors versus untreated controls” value in series [2] (25 mg/kg, both dosing regimens) was “significant PB4188 mediated reduction in HER2:HER3 dimers”. Also, the “HER3-p85 (PI3K) in tumors versus untreated controls” value in series [2] (4H after dosing) was “significant reduction in HER3-p85 (PI3K)”.
